Measured values taken from patent US6544773B1, “Microbial process for degradation of PCBS in clophen A-50 using a novel marine microorganism, Pseudomonas CH07” (priority 2001, dated 2003).

Legend:
Pseudomonas CH07 [1] = assay: Degradation of PCB congeners of Clophen A-50 by Pseudomonas CH07 in seawater nutrient broth, GC-ECD analysis; details: for Degradation Of PCBs: 40 hrs incubation with Pseudomonas CH07, versus control; for Conc. of PCBs in Test sol. (incubation) 40 hrs.: incubation with Pseudomonas CH07 for 40 hrs, Clophen A-50 100 ppm in seawater nutrient broth
Procedure: A defined seawater nutrient broth medium (code no. 088 from Himedia, Bombay) containing beef extract 3 g L^−1, peptic digest of animal tissue 5 g L^−1 was used. One liter of medium contained 500 ml seawater and 500 ml distilled water and the final pH was adjusted to 7 using 0.1 N NaOH. After autoclaving, the required amount of stock solution (10,000 ppm) of Clophen A-50 was added to the medium in sterile condition to achieve a final concentration of 100 ppm. Immediately after adding the stock PCBs solution, the hexane part of it was evaporated out by gently swirling the flask in sterile condition and sterile glycerol was added to the medium in a 1:1 ratio of stock solution:glycerol. 40 μl of 24 hold culture of Pseudomonas CH07 growths was added in two replicates of 20 ml of test (seawater nutrient broth+Clophen A-50) medium to seawater nutrient broth (without any addition of Clophen A-50). Controls in duplicate were also maintained without the addition of the organism at room temperature (ca. 28°±2° C.). Control and test cultures were maintained at room temperature for two days and at various predecided intervals of time, the samples was taken out aseptically and prepared for GC analysis. The details of the sample preparation is described below.
The PCBs were analyzed following the method described by Boon et al. The method was standardized in our laboratory using the PCBs standards obtained from Promochem, Germany as well as other analytical grade chemicals from E. Merck. The purity of the solvents was checked by Gas chromatography for each of the bottles. The different adsorbents, alumina, silica, were purified by soxhlet extraction with di-chloro-methane (HPLC grade) for about eight hours. The anhydrous Na2SO4 and the glass wool were also purified by Soxhlet extraction with HPLC grade di-chloro methane. The different steps of the analytical methods are illustrated below:
i. Aliquot of 1 ml sample was treated with 1 ml n-hexane (HPLC grade) thrice and thoroughly mixed by a vortex mixture for five minutes each time. The upper part of the solvent layer (solvent extract) was separated with the help of micropipette and transferred to a sterilized glass tube.
ii. Concentrate the solvent extract to 1 ml by evaporation with Snyder column evaporator on a water bath at 85° C.
iii. Purify of the solvent extract by alumina clean up using micro-column technique.
iv. Concentrate the solvent extract to 1 ml by evaporation with Snyder column evaporator on a water bath at 85° C.
v. Isolate PCBs from polar chlorinated compounds by eluting through micro-column of silica.
vi. Concentrate the PCBs fraction to 1 ml by evaporation with Snyder column evaporator on a water bath at 85° C.
vii. Analyze the aliquot by GC-ECD with reference to standard PCBs (individual congeners).
The samples were analyzed by gas chromatography (Varian GC-3380) coupled with an electron capture detector and an autosampler 8200. Capillary column VA-5 (30 m×0.25 mm) was employed with electron capture detector […] for peak detection. Argon with 5% methane was the carrier gas. A temperature program was used (table. 3). […] The experimental condition of the instrument is illustrated in the table-4. The analysis of PCBs was calibrated using the standards for individual congeners of PCBs obtained from Promochem, Germany. Using different dilutions of the stock solution of the standards carried out the calibration of each of the individual congeners. The linearity of the calibration curve was determined with a range of dilution of the mix-standards.

Pseudomonas CH07 [2] = assay: Taxonomical characteristics: growth of Pseudomonas CH07 on antibiotics; format: cell-based; parameters: key: −: negative response (no growth); +: positive response (slight or moderate growth); ++: very good response (good growth); details: Table 1, taxonomical tests

Row | Compound | Degradation Of PCBs (Pseudomonas CH07 [1]) [%] | Conc. of PCBs in Test sol. (incubation) 40 hrs. (Pseudomonas CH07 [1]) [ng/mL] | Growth on (Response) (Pseudomonas CH07 [2])
1 | Clc1ccc(-c2ccc(Cl)c(Cl)c2)cc1Cl [CB-77, 3,3′,4,4′-tetrachlorobiphenyl] | 24.25 | 40.42 | 
2 | Clc1cc(Cl)c(-c2cccc(Cl)c2Cl)cc1Cl [CB-97, 2,2′,3′,4,5-Pentachloro] | 19.69 |  | 
3 | Clc1ccc(Cl)c(-c2cc(Cl)c(Cl)cc2Cl)c1 [CB-101, 2,2′,4,5,5′-Pentachloro] | 20.19 |  | 
4 | Clc1ccc(-c2ccc(Cl)c(Cl)c2Cl)cc1Cl [CB-105, 2,3,3′,4,4′-Pentachloro] | 46.69 |  | 
5 | Clc1c(Cl)c(Cl)c(-c2ccccc2)c(Cl)c1Cl [CB-116, 2,3,4,5,6-Pentachloro] | 20.04 | 8.06 | 
6 | Clc1ccc(-c2cc(Cl)c(Cl)cc2Cl)cc1Cl [CB-118, 2,3′,4,4′,5-Pentachloro] | 40.72 |  | 
7 | Clc1cc(Cl)c(-c2ccc(Cl)c(Cl)c2)c(Cl)c1 [CB-119, 2,3′,4,4′,6-Pentachloro] | 19.66 | 6.48 | 
8 | Clc1ccc(-c2cc(Cl)c(Cl)c(Cl)c2)cc1Cl [CB-126, 3,3′,4,4′,5-Pentachloro] | 100 | 00.00 | 
9 | Clc1ccc(-c2ccc(Cl)c(Cl)c2Cl)c(Cl)c1Cl [CB-128, 2,2′,3,3′,4,4′-Hexachloro] | 64.33 |  | 
10 | Clc1cc(Cl)c(-c2ccc(Cl)c(Cl)c2Cl)cc1Cl [CB-138, 2,2′,3,4,4′,5′-Hexachloro] | 55.97 |  | 
11 | Clc1ccc(Cl)c(-c2cc(Cl)c(Cl)c(Cl)c2Cl)c1 [CB-141, 2,2′,3,4,5,5′-Hexachloro] | 55.38 |  | 
12 | Clc1ccc(Cl)c(-c2c(Cl)c(Cl)cc(Cl)c2Cl)c1 [CB-151, 2,2′,3,5,5′,6-Hexachloro] | 37.32 |  | 
13 | Clc1cc(Cl)c(-c2cc(Cl)c(Cl)c(Cl)c2Cl)cc1Cl [CB-180, 2,2′,3,4,4′,5,5′-Heptachloro] | 61.33 |  | 
14 | Clc1ccc(-c2c(Cl)c(Cl)c(Cl)c(Cl)c2Cl)c(Cl)c1 [CB-181, 2,2′,3,4,4′,5,6-Heptachloro] | 100 |  | 
15 | CN(C)[C@@H]1C(O)=C(C(N)=O)C(=O)[C@@]2(O)C(O)=C3C(=O)c4c(O)ccc(Cl)c4[C@@H](O)[C@H]3C[C@@H]12 [Demechlocyclin] |  |  | ++
16 | NC[C@H]1O[C@H](O[C@H]2[C@H](O)[C@@H](O[C@H]3O[C@H](CO)[C@@H](O)[C@H](N)[C@H]3O)[C@H](N)C[C@@H]2N)[C@H](O)[C@@H](O)[C@@H]1O [Kanamycin] |  |  | ++
17 | [H]/N=C(/N)N[C@H]1[C@H](O)[C@@H](O)[C@H](O[C@@H]2O[C@@H](C)[C@](O)(C=O)[C@H]2O[C@@H]2O[C@@H](CO)[C@H](O)[C@@H](O)[C@@H]2NC)[C@@H](N/C(N)=N\[H])[C@@H]1O [Streptomycin] |  |  | ++
18 | CN(C)[C@@H]1C(O)=C(C(N)=O)C(=O)[C@@]2(O)C(O)=C3C(=O)c4c(O)cccc4[C@@](C)(O)[C@H]3C[C@@H]12 [Tetracycline] |  |  | ++
19 | Neomycin |  |  | ++
